Data: patent US20150105252A1, “SUBSTITUTED PYRAZOLES AS HERBICIDES” (E I DU PONT DE NEMOURS AND COMPANY, priority 2013, published 2015)

Key:
crabgrass, large [1] = test: Test A preemergence; assay type: in vivo, Digitaria sanguinalis; conditions: preemergence
Method in brief: (§1)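 After sowing in a sand–loam mix, pots received compound preemergence by directed soil spray, or postemergence once plants reached the one- to two-leaf stage (2–10 cm). Formulation contained surfactant in a non-phytotoxic solvent. Injury was scored visually after ~10 greenhouse days, 0–100 scale.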

pigweed = test: Test A preemergence; assay type: in vivo, Amaranthus retroflexus; conditions: preemergence
Method in brief: as §1

crabgrass, large [2] = test: Test A postemergence; assay type: in vivo, Digitaria sanguinalis
Method in brief: as §1

wheat [3] = test: Test A postemergence; assay type: in vivo, Triticum aestivum
Method in brief: as §1

corn = test: Test A postemergence; assay type: in vivo, Zea mays
Method in brief: as §1

rice = test: Test B flood; assay type: in vivo, Oryza sativa; conditions: 250 g ai/ha, visual rating on 0 to 100 scale (0 no effect, 100 complete control), 13 to 15 days
Method in brief: (§2)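 Flooded-pot test: compound dosed into 3 cm of standing water above soil when plants had two leaves. Visual control ratings (0–100) versus untreated plants after 13–15 d.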

ducksalad = test: Test B flood; assay type: in vivo, Heteranthera limosa; conditions: 250 g ai/ha, visual rating on 0 to 100 scale (0 no effect, 100 complete control), 13 to 15 days
Method in brief: as §2

wheat [4] = test: Test C preemergence; assay type: in vivo, Triticum aestivum; conditions: for Plant response rating (scale of 0 to 100), Wheat: Preemergence, 250 g ai/ha; for Wheat plant response rating / Plant response rating, Wheat: preemergence; for Plant response rating, Wheat: 62 g ai/ha, scale 0 to 100, 0 = no effect, 100 = complete control
Method in brief: (§3)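 Herbicidal effect is expressed as percent visual control (0–100) judged against untreated plants 13 to 15 days after treatment in the greenhouse. Preemergence pots contained seeds in a soil–sand blend; postemergence plants, 2–18 cm tall, grew in peat-based planting medium.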

galium = test: Test C preemergence; assay type: in vivo, Galium aparine; conditions: for Plant response rating (scale of 0 to 100), Galium: Preemergence, 250 g ai/ha; for Galium plant response rating / Plant response rating, Galium: preemergence; for Plant response rating, Galium: 62 g ai/ha, scale 0 to 100, 0 = no effect, 100 = complete control
Method in brief: as §3

lambsquarters [5] = test: Test C preemergence; assay type: in vivo, Chenopodium album; conditions: for Plant response rating (scale of 0 to 100), Lambsquarters: Preemergence, 250 g ai/ha; for Lambsquarters plant response rating / Plant response rating, Lambsquarters: preemergence; for Plant response rating, Lambsquarters: 62 g ai/ha, scale 0 to 100, 0 = no effect, 100 = complete control
Method in brief: as §3

waterhemp = test: Test C preemergence; assay type: in vivo, Amaranthus rudis; conditions: for Plant response rating (scale of 0 to 100), Waterhemp: Preemergence, 250 g ai/ha; for Waterhemp plant response rating / Plant response rating, Waterhemp: preemergence; for Plant response rating, Waterhemp: 62 g ai/ha, scale 0 to 100, 0 = no effect, 100 = complete control
Method in brief: as §3

wheat [6] = test: Test C postemergence; assay type: in vivo, Triticum aestivum; conditions: for Plant response rating (scale of 0 to 100 where 0 is no effect and 100 is complete control), Wheat: Postemergence, 31 g ai/ha, visually evaluated after 13 to 15 days; for Wheat plant response rating / Plant response rating, Wheat: postemergence; for Wheat plant response rating: 62 g ai/ha, scale 0 to 100
Method in brief: as §3

lambsquarters [7] = test: Test C postemergence; assay type: in vivo, Chenopodium album; conditions: for Plant response rating (scale of 0 to 100 where 0 is no effect and 100 is complete control), Lambsquarters: Postemergence, 31 g ai/ha, visually evaluated after 13 to 15 days; for Lambsquarters plant response rating / Plant response rating, Lambsquarters: postemergence; for Lambsquarters plant response rating: 62 g ai/ha, scale 0 to 100
Method in brief: as §3

barnyardgrass = test: Test C postemergence; assay type: in vivo, Echinochloa crus-galli; conditions: for Plant response rating (scale of 0 to 100 where 0 is no effect and 100 is complete control), Barnyardgrass: Postemergence, 31 g ai/ha, visually evaluated after 13 to 15 days; for Barnyardgrass plant response rating / Plant response rating, Barnyardgrass: postemergence; for Barnyardgrass plant response rating: 62 g ai/ha, scale 0 to 100
Method in brief: as §3

[8] = 125 g ai/ha, visual injury, 0 to 100 scale, approx. 10 days
[9] = 500 g ai/ha, visual injury after approx. 10 days, 0 to 100 scale (0 no effect, 100 complete control)
[10] = Postemergence, 500 g ai/ha, visual rating after approx. 10 days, 0 to 100 scale (0 no effect, 100 complete control)
[11] = postemergence, 125 g ai/ha, about 10 days, visual rating on 0 to 100 scale (0 no effect, 100 complete control)
[12] = 31 g ai/ha, visual rating, scale 0 to 100 (0 no effect, 100 complete control), 13 to 15 days
[13] = 125 g ai/ha, scale 0 to 100, 0 is no effect, 100 is complete control
[14] = 250 g ai/ha, scale 0 to 100 (0 no effect, 100 complete control)
[15] = 125 g ai/ha, scale 0 to 100, 0 no effect, 100 complete control

## CCCc1cc(C(=O)NCC)nn1Cc1ccnc(C(F)(F)F)c1 [Compound 95]
crabgrass, large [1]; [8]
  Crabgrass, Large plant response rating: 100
crabgrass, large [1]; [9]
  Crabgrass, Large plant response rating: 100
pigweed; [8]
  Pigweed plant response rating: 100
pigweed; [9]
  Pigweed plant response rating: 100
crabgrass, large [2]; [10]
  Crabgrass, Large plant response rating: 100
crabgrass, large [2]; [11]
  Crabgrass, Large plant response rating: 90
Wheat [3]; [10]
  Wheat plant response rating: 90
Wheat [3]; [11]
  Wheat plant response rating: 80
corn; [10]
  Corn plant response rating: 100
corn; [11]
  Corn plant response rating: 80
rice
  Plant response rating, Rice: 20
ducksalad
  Plant response rating, Ducksalad: 85
Wheat [4]
  Plant response rating (scale of 0 to 100), Wheat: 90
Wheat [4]; [12]
  Wheat plant response rating: 5
Wheat [4]; 13 to 15 days
  Plant response rating, Wheat: 55
Wheat [4]; [13]
  Wheat plant response rating: 60
galium
  Plant response rating (scale of 0 to 100), Galium: 100
galium; [12]
  Galium plant response rating: 100
galium; 13 to 15 days
  Plant response rating, Galium: 100
galium; [13]
  Galium plant response rating: 100
Lambsquarters [5]
  Plant response rating (scale of 0 to 100), Lambsquarters: 100
Lambsquarters [5]; [12]
  Lambsquarters plant response rating: 100
Lambsquarters [5]; 13 to 15 days
  Plant response rating, Lambsquarters: 100
Lambsquarters [5]; [13]
  Lambsquarters plant response rating: 100
waterhemp
  Plant response rating (scale of 0 to 100), Waterhemp: 100
waterhemp; [12]
  Waterhemp plant response rating: 100
waterhemp; 13 to 15 days
  Plant response rating, Waterhemp: 100
waterhemp; [13]
  Waterhemp plant response rating: 100
Wheat [6]
  Plant response rating (scale of 0 to 100 where 0 is no effect and 100 is complete control), Wheat: 5
  Wheat plant response rating: 5
Wheat [6]; [14]
  Plant response rating, Wheat: 20
Wheat [6]; [15]
  Plant response rating, Wheat: 10
Lambsquarters [7]
  Plant response rating (scale of 0 to 100 where 0 is no effect and 100 is complete control), Lambsquarters: 40
  Lambsquarters plant response rating: 80
Lambsquarters [7]; [14]
  Plant response rating, Lambsquarters: 98
Lambsquarters [7]; [15]
  Plant response rating, Lambsquarters: 90
barnyardgrass
  Plant response rating (scale of 0 to 100 where 0 is no effect and 100 is complete control), Barnyardgrass: 0
  Barnyardgrass plant response rating: 0
barnyardgrass; [14]
  Plant response rating, Barnyardgrass: 30
barnyardgrass; [15]
  Plant response rating, Barnyardgrass: 0

## CCc1cc(C(=O)NC2CC2)nn1Cc1ccnc(OC(F)F)c1 [Compound 98]
crabgrass, large [1]; [8]
  Crabgrass, Large plant response rating: 100
crabgrass, large [1]; [9]
  Crabgrass, Large plant response rating: 100
pigweed; [8]
  Pigweed plant response rating: 100
pigweed; [9]
  Pigweed plant response rating: 100
crabgrass, large [2]; [10]
  Crabgrass, Large plant response rating: 90
crabgrass, large [2]; [11]
  Crabgrass, Large plant response rating: 90
Wheat [3]; [10]
  Wheat plant response rating: 80
Wheat [3]; [11]
  Wheat plant response rating: 70
corn; [10]
  Corn plant response rating: 90
corn; [11]
  Corn plant response rating: 80
rice
  Plant response rating, Rice: 0
ducksalad
  Plant response rating, Ducksalad: 70
Wheat [4]
  Plant response rating (scale of 0 to 100), Wheat: 90
Wheat [4]; [12]
  Wheat plant response rating: 30
Wheat [4]; 13 to 15 days
  Plant response rating, Wheat: 45
Wheat [4]; [13]
  Wheat plant response rating: 70
galium
  Plant response rating (scale of 0 to 100), Galium: 100
galium; [12]
  Galium plant response rating: 100
galium; 13 to 15 days
  Plant response rating, Galium: 100
galium; [13]
  Galium plant response rating: 100
Lambsquarters [5]
  Plant response rating (scale of 0 to 100), Lambsquarters: 100
Lambsquarters [5]; [12]
  Lambsquarters plant response rating: 100
Lambsquarters [5]; 13 to 15 days
  Plant response rating, Lambsquarters: 100
Lambsquarters [5]; [13]
  Lambsquarters plant response rating: 100
waterhemp
  Plant response rating (scale of 0 to 100), Waterhemp: 100
waterhemp; [12]
  Waterhemp plant response rating: 98
waterhemp; 13 to 15 days
  Plant response rating, Waterhemp: 98
waterhemp; [13]
  Waterhemp plant response rating: 100
Wheat [6]
  Plant response rating (scale of 0 to 100 where 0 is no effect and 100 is complete control), Wheat: 5
  Wheat plant response rating: 5
Wheat [6]; [14]
  Plant response rating, Wheat: 20
Wheat [6]; [15]
  Plant response rating, Wheat: 5
Lambsquarters [7]
  Plant response rating (scale of 0 to 100 where 0 is no effect and 100 is complete control), Lambsquarters: 60
  Lambsquarters plant response rating: 70
Lambsquarters [7]; [14]
  Plant response rating, Lambsquarters: 95
Lambsquarters [7]; [15]
  Plant response rating, Lambsquarters: 90
barnyardgrass
  Plant response rating (scale of 0 to 100 where 0 is no effect and 100 is complete control), Barnyardgrass: 0
  Barnyardgrass plant response rating: 0
barnyardgrass; [14]
  Plant response rating, Barnyardgrass: 35
barnyardgrass; [15]
  Plant response rating, Barnyardgrass: 5
